Experimental data: patent US20250235460A1, “COMBINATION THERAPY USING GLUCOSE-DEPENDENT INSULINOTROPIC POLYPEPTIDE RECEPTOR ANTAGONIST COMPOUNDS AND GLP-1 RECEPTOR AGONIST COMPOUNDS” (Pfizer Inc., priority 2024, published 2025)
pEC50: −log10 of the molar value. Counter-ions that a name gives are not always drawn. Like-named read-outs stand apart in the source and are kept apart here.

Columns and labels:
human GLP-1R [1] = target: human GLP-1R (Homo sapiens, UniProt P43220, G168S); assay: CHO GLP-1R Clone H6 cAMP HTRF agonist assay (Assay 1, high receptor density); assay type: cell-based; details: for pEC50: CHO GLP-1R clone H6, cAMP HTRF, geometric mean; for Emax: read-out: Assay 1 Emax (%)
Outline: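 Averaging differs by parameter: a geometric mean for EC50 and an arithmetic mean for Emax, each over the stated replicate number.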

human GLP-1R [2] = target: human GLP-1R (Homo sapiens, UniProt P43220, L260F); assay: CHO GLP-1R Clone C6 cAMP HTRF agonist assay (Assay 2, low receptor density); assay type: cell-based; details: for pEC50: CHO GLP-1R clone C6, cAMP HTRF, geometric mean; for Emax: CHO GLP-1R clone C6, arithmetic mean, relative to saturating GLP-1 (1 μM)
Excerpt: In Table 5 and Table 6, assay data are presented to two (2) significant figures as the geometric mean (EC50s) and arithmetic mean (Emax) based on the number of replicates listed (Number). A blank cell means there was no data for that Example or the Emax was not calculated.

[3] = CHO GLP-1R clone H6, arithmetic mean, relative to saturating GLP-1 (1 μM)

Sequence of human GLP-1R (Homo sapiens, UniProt P43220, G168S) (P43220 24-463 G168S): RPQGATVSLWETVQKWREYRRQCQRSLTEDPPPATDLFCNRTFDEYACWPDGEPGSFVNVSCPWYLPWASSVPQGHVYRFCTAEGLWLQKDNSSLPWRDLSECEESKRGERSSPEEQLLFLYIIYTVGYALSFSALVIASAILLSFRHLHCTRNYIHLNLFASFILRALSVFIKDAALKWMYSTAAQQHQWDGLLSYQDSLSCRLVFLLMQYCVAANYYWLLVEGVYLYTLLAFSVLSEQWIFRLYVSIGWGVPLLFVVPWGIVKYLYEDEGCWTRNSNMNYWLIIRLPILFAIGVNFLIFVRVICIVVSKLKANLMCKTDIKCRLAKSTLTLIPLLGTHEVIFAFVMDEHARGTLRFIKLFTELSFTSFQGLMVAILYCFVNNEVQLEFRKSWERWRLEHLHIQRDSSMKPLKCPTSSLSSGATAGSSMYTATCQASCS
Sequence of human GLP-1R (Homo sapiens, UniProt P43220, L260F) (P43220 24-463 L260F): as the sequence (P43220 24-463 G168S) above, with S145G, L237F counted along it

## COC[C@@H]1C[C@H]1Cn1c(CN2CCC(c3cccc(OCc4ccc(Cl)cc4F)n3)CC2)nc2ccc(C(=O)O)cc21 [Compound 197B, 2-[(4-{6-[(4-chloro-2-fluorobenzyl)oxy]pyridin-2-yl}piperidin-1-yl)methyl]-1-{[(1R,2R)-2-(methoxymethyl)cyclopropyl]methyl}-1H-benzimidazole-6-carboxylic acid]
Human GLP-1R [1]
  pEC50: 8.09
Human GLP-1R [1]; [3]
  Emax: 74%
Human GLP-1R [2]
  pEC50: 6.66
  Emax: 93%

## Cn1c(CN2CCC(c3cccc(OCc4ccc(Cl)cc4F)n3)CC2)nc2ccc(C(=O)O)nc21 [Compound 199B, 2-((4-(6-((4-Chloro-2-fluorobenzyl)oxy)pyridin-2-yl)piperidin-1-yl)methyl)-3-methyl-3H-imidazo[4,5-b]pyridine-5-carboxylic acid hydrochloride]
Human GLP-1R [1]
  pEC50: 8.77
  Emax: 67%
Human GLP-1R [2]
  pEC50: 7.35
  Emax: 83%

## O=C(O)c1cc2c(cn1)nc(CN1CCC(c3cccc(OCc4ccc(Cl)cc4F)n3)CC1)n2C[C@@H]1CCO1 [Compound 203B, 2-[(4-{6-[(4-chloro-2-fluorobenzyl)oxy]pyridin-2-yl}piperidin-1-yl)methyl]-1-[(2S)-oxetan-2-ylmethyl]-1H-imidazo[4,5-c]pyridine-6-carboxylic acid]
Human GLP-1R [1]
  pEC50: < 4.82
Human GLP-1R [1]; [3]
  Emax: 98%
Human GLP-1R [2]
  pEC50: < 4.70

## O=C(O)c1cc2c(cn1)nc(CN1CCC(c3cccc(OCc4ccc(Cl)cc4F)n3)CC1)n2Cc1ncco1 [Compound 204B, 2-[(4-{6-[(4-chloro-2-fluorobenzyl)oxy]pyridin-2-yl}piperidin-1-yl)methyl]-1-(1,3-oxazol-2-ylmethyl)-1H-imidazo[4,5-c]pyridine-6-carboxylic acid]
Human GLP-1R [1]
  pEC50: 7.74
Human GLP-1R [1]; [3]
  Emax: 88%
Human GLP-1R [2]
  pEC50: 6.40
  Emax: 100%

## COCCn1c(CN2CCC(c3cccc(OCc4ccc(Cl)cc4F)n3)CC2)nc2cnc(C(=O)O)cc21 [Compound 205B, 2-[(4-{6-[(4-chloro-2-fluorobenzyl)oxy]pyridin-2-yl}piperidin-1-yl)methyl]-1-(2-methoxyethyl)-1H-imidazo[4,5-c]pyridine-6-carboxylic acid]
Human GLP-1R [1]
  pEC50: 8.24
Human GLP-1R [1]; [3]
  Emax: 67%
Human GLP-1R [2]
  pEC50: 7.00
  Emax: 79%

## Cn1c(CN2CCC(c3cccc(OCc4ccc(Cl)cc4F)n3)CC2)nc2cc(F)c(C(=O)O)cc21 [Compound 206B, 2-[(4-{6-[(4-chloro-2-fluorobenzyl)oxy]pyridin-2-yl}piperidin-1-yl)methyl]-5-fluoro-1-methyl-1H-benzimidazole-6-carboxylic acid]
Human GLP-1R [1]
  pEC50: 7.42
Human GLP-1R [2]
  pEC50: 6.12
  Emax: 91%

## COCCn1c(CN2CCC(c3cccc(OCc4ccc(Cl)cc4F)n3)CC2)nc2ncc(C(=O)O)nc21 [Compound 207B, 2-[(4-{6-[(4-chloro-2-fluorobenzyl)oxy]pyridin-2-yl}piperidin-1-yl)methyl]-1-(2-methoxyethyl)-1H-imidazo[4,5-b]pyrazine-6-carboxylic acid]
Human GLP-1R [1]
  pEC50: 8.24
Human GLP-1R [1]; [3]
  Emax: 78%
Human GLP-1R [2]
  pEC50: 6.89
  Emax: 94%

## COCCn1c(CN2CCC(c3cccc(OCc4ccc(Cl)cc4F)n3)CC2)nc2ncc(C(=O)O)c(C)c21 [Compound 208B, 2-[(4-{6-[(4-chloro-2-fluorobenzyl)oxy]pyridin-2-yl}piperidin-1-yl)methyl]-1-(2-methoxyethyl)-7-methyl-1H-imidazo[4,5-b]pyridine-6-carboxylic acid]
Human GLP-1R [1]
  pEC50: 8.77
Human GLP-1R [1]; [3]
  Emax: 82%
Human GLP-1R [2]
  pEC50: 7.39
  Emax: 99%

## Cc1nc2nc(CN3CCC(c4cccc(OCc5ccc(Cl)cc5F)n4)CC3)n(C)c2cc1C(=O)O [Compound 209B, 2-[(4-{6-[(4-chloro-2-fluorobenzyl)oxy]pyridin-2-yl}piperidin-1-yl)methyl]-1,5-dimethyl-1H-imidazo[4,5-b]pyridine-6-carboxylic acid]
Human GLP-1R [1]
  pEC50: 8.15
Human GLP-1R [1]; [3]
  Emax: 59%
Human GLP-1R [2]
  pEC50: 6.72
  Emax: 80%

## COCCn1c(CN2CCC(c3cccc(OCc4ccc(C#N)cc4)n3)CC2)nc2cc(F)c(C(=O)O)cc21 [Compound 211B, 2-[(4-{6-[(4-cyanobenzyl)oxy]pyridin-2-yl}piperidin-1-yl)methyl]-5-fluoro-1-(2-methoxyethyl)-1H-benzimidazole-6-carboxylic acid]
Human GLP-1R [1]
  pEC50: 7.30
Human GLP-1R [1]; [3]
  Emax: 81%
Human GLP-1R [2]
  pEC50: 6.06
  Emax: 83%

## C[C@H]1CN(c2cccc(OCc3ccc(C#N)cc3F)n2)CCN1Cc1nc2ccc(C(=O)O)nc2n1Cc1ncco1 [Compound 215B, 2-{[(2S)-4-{6-[(4-cyano-2-fluorobenzyl)oxy]pyridin-2-yl}-2-methylpiperazin-1-yl]methyl}-3-(1,3-oxazol-2-ylmethyl)-3H-imidazo [4,5-b]pyridine-5-carboxylic acid]
Human GLP-1R [1]
  pEC50: 8.47
Human GLP-1R [1]; [3]
  Emax: 73%
Human GLP-1R [2]
  Emax: 89%

## O=C(O)c1ccc2nc(CN3CCC(c4cccc(OCc5ccc(Cl)cc5F)n4)CC3)n(C[C@H]3CCO3)c2n1 [Compound 216B, 2-[(4-{6-[(4-chloro-2-fluorobenzyl)oxy]pyridin-2-yl}piperidin-1-yl)methyl]-3-[(2R)-oxetan-2-ylmethyl]-3H-imidazo[4,5-b]pyridine-5-carboxylic acid]
Human GLP-1R [1]
  pEC50: 9.33
Human GLP-1R [1]; [3]
  Emax: 77%
Human GLP-1R [2]
  pEC50: 8.30
  Emax: 94%

## COCCn1c(CN2CCC(c3cccc(OCc4ccc(C)cc4)n3)CC2)nc2ccc(C(=O)O)cc21 [Compound 217B, Ammonium 2-((4-(6-((4-Methylbenzyl)oxy)pyridin-2-yl)piperidin-1-yl)methyl)-1-(2-methoxyethyl)-1H-benzo[d]imidazole-6-carboxylate]
Human GLP-1R [1]
  pEC50: 8.82
Human GLP-1R [1]; [3]
  Emax: 73%
Human GLP-1R [2]
  pEC50: 7.62
  Emax: 91%

## COCCn1c(CN2CCC(c3cccc(OCc4ccc(C#N)c(C)c4)n3)CC2)nc2ccc(C(=O)O)cc21 [Compound 218B, 2-((4-(6-((4-cyano-3-methylbenzyl)oxy)pyridin-2-yl)piperidin-1-yl)methyl)-1-(2-methoxyethyl)-1H-benzo[d]imidazole-6-carboxylic acid]
Human GLP-1R [1]
  pEC50: 8.82
Human GLP-1R [2]
  pEC50: 7.54
  Emax: 95%

## COCCn1c(CN2CCC(c3cccc(OCc4cc(F)c(Cl)cc4F)n3)CC2)nc2ccc(C(=O)O)cc21 [Compound 219B, 2-((4-(6-((4-chloro-2,5-difluorobenzyl)oxy)pyridin-2-yl)piperidin-1-yl)methyl)-1-(2-methoxyethyl)-1H-benzo[d]imidazole-6-carboxylic acid]
Human GLP-1R [1]
  pEC50: 9.52
Human GLP-1R [1]; [3]
  Emax: 93%
Human GLP-1R [2]
  pEC50: 8.42
  Emax: 93%

## COCCn1c(CN2CCC(c3cccc(OCc4c(F)cc(Cl)cc4F)n3)CC2)nc2ccc(C(=O)O)cc21 [Compound 220B, 2-((4-(6-((4-chloro-2,6-difluorobenzyl)oxy)pyridin-2-yl)piperidin-1-yl)methyl)-1-(2-methoxyethyl)-1H-benzo[d]imidazole-6-carboxylic acid]
Human GLP-1R [1]
  pEC50: 9.48
Human GLP-1R [1]; [3]
  Emax: 82%
Human GLP-1R [2]
  pEC50: 7.89
  Emax: 110%

## Cn1c(CN2CCC(c3cccc(OCc4ccccc4)n3)CC2)nc2ccc(C(=O)O)cc21 [Compound 221B, 2-((4-(6-(Benzyloxy)pyridin-2-yl)piperidin-1-yl)methyl)-1-methyl-1H-benzo[d]imidazole-6-carboxylic acid]
Human GLP-1R [1]
  pEC50: 8.47
Human GLP-1R [1]; [3]
  Emax: 86%
Human GLP-1R [2]
  pEC50: 7.64
  Emax: 110%
